Reference: paper PMC11249646, “Small-Molecule Disruptors of the Interaction between Calcium- and Integrin-Binding Protein 1 and Integrin αIIbβ3 as Novel Antiplatelet Agents” (ACS Pharmacology & Translational Science, 2024)

molecular target: T1, CIB1 and αIIb interaction (CIB1-GST : F-αIIb peptide) (Homo sapiens, UniProt Q99828); experiment: FP assay, 1536-well qHTS format (primary and confirmatory screen); format: binding; settings: confirmatory screen
T1 construct: made in house; host or cells: BL-21 plus RIL cells (E. coli)
T1 sequence (Q99828 1-191): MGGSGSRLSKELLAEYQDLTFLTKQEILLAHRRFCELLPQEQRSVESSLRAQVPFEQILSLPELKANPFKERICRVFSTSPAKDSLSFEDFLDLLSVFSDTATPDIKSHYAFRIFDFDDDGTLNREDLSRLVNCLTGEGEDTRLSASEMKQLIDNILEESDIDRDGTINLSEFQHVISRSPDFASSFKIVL

**Q.** With O=C(O)C(F)(F)F.O=C1Nc2ccccc2/C1=N/NC(=S)Nc1cccnc1 [NCGC00242647-01] as the molecule, how does the “CONFIRMATORY SCREEN Efficacy (%)” value read?
**A.** -44%

**Q.** How did the “Efficacy (%) (confirmatory screen)” value turn out when Cc1cc(C)nc(NC(=S)N2CCN(c3ccc4nsnc4c3)CC2)c1.O=C(O)C(F)(F)F [NCGC00244160-01] was run?
**A.** -106%

**Q.** FC(F)(F)c1cccc(N2CCN(C(=S)Nc3nccc4cccnc34)CC2)c1.O=C(O)C(F)(F)F [NCGC00244201-01] was tested. Which “Efficacy (%) (confirmatory screen)” value did it give?
**A.** -88%

**Q.** How did the “Efficacy (%) (confirmatory screen)” value turn out when COc1ccc(CC(=O)Nc2ccc(S(=O)(=O)Nc3cc(C)on3)cc2)cc1C.O=C(O)C(F)(F)F [NCGC00244861-01] was run?
**A.** -69%

**Q.** How did the “CONFIRMATORY SCREEN Efficacy (%)” value turn out when Cc1cc(NS(=O)(=O)c2ccc(NC(=O)Cc3ccc(F)c(Cl)c3)cc2)no1.O=C(O)C(F)(F)F [NCGC00244873-01] was run?
**A.** -48%

**Q.** How did the “Efficacy (%) (confirmatory screen)” value turn out when Cc1coc2c1C(=O)C(=O)c1c-2ccc2c(C)cccc12 [NCGC00247624-03] was run?
**A.** -85%

same assay, conditions: confirmatory screen, YES/NO

**Q.** Which “Confirm? (confirmatory screen)” value does the source give for Cc1cc(C)nc(NC(=S)N2CCN(c3ccc4nsnc4c3)CC2)c1.O=C(O)C(F)(F)F [NCGC00244160-01] here?
**A.** YES

**Q.** How did the “Confirm? (confirmatory screen)” value turn out when FC(F)(F)c1cccc(N2CCN(C(=S)Nc3nccc4cccnc34)CC2)c1.O=C(O)C(F)(F)F [NCGC00244201-01] was run?
**A.** YES

**Q.** For COc1ccc(CC(=O)Nc2ccc(S(=O)(=O)Nc3cc(C)on3)cc2)cc1C.O=C(O)C(F)(F)F [NCGC00244861-01], which “Confirm? (confirmatory screen)” value is on record?
**A.** YES

**Q.** Cc1coc2c1C(=O)C(=O)c1c-2ccc2c(C)cccc12 [NCGC00247624-03] was tested. Which “Confirm? (confirmatory screen)” value did it give?
**A.** YES

same assay, conditions: confirmatory screen, qHTS curve class

**Q.** With O=C(O)C(F)(F)F.O=C1Nc2ccccc2/C1=N/NC(=S)Nc1cccnc1 [NCGC00242647-01] as the molecule, how does the “CONFIRMATORY SCREEN Curve Class” value read?
**A.** 4

**Q.** Which “CONFIRMATORY SCREEN Curve Class” value does the source give for Cc1cc(NS(=O)(=O)c2ccc(NC(=O)Cc3ccc(F)c(Cl)c3)cc2)no1.O=C(O)C(F)(F)F [NCGC00244873-01] here?
**A.** 4

same assay, conditions: confirmatory screen, qHTS curve class; negative sign = inhibitory curve

**Q.** Cc1cc(C)nc(NC(=S)N2CCN(c3ccc4nsnc4c3)CC2)c1.O=C(O)C(F)(F)F [NCGC00244160-01] was tested. Which “Curve Class (confirmatory screen)” value did it give?
**A.** -2.1

**Q.** With FC(F)(F)c1cccc(N2CCN(C(=S)Nc3nccc4cccnc34)CC2)c1.O=C(O)C(F)(F)F [NCGC00244201-01] as the molecule, how does the “Curve Class (confirmatory screen)” value read?
**A.** -2.2

**Q.** COc1ccc(CC(=O)Nc2ccc(S(=O)(=O)Nc3cc(C)on3)cc2)cc1C.O=C(O)C(F)(F)F [NCGC00244861-01] was tested. Which “Curve Class (confirmatory screen)” value did it give?
**A.** -2.4

**Q.** Which “Curve Class (confirmatory screen)” value does the source give for Cc1coc2c1C(=O)C(=O)c1c-2ccc2c(C)cccc12 [NCGC00247624-03] here?
**A.** -2.2

same assay, conditions: confirmatory screen; read-out: IC50 [μM] (confirmatory screen)

**Q.** With COc1ccc(CC(=O)Nc2ccc(S(=O)(=O)Nc3cc(C)on3)cc2)cc1C.O=C(O)C(F)(F)F [NCGC00244861-01] as the molecule, how does the IC50 read?
**A.** 39.8 µM

same assay, conditions: qHTS FP screen hits, Table S2; negative = inhibition

**Q.** With FC(F)(F)c1cccc(N2CCN(C(=S)Nc3nccc4cccnc34)CC2)c1.O=C(O)C(F)(F)F [NCGC00244201-01] as the molecule, how does the “Efficacy (%)” value read?
**A.** -55%

**Q.** With Cc1cc(NS(=O)(=O)c2ccc(NC(=O)Cc3ccc(F)c(Cl)c3)cc2)no1.O=C(O)C(F)(F)F [NCGC00244873-01] as the molecule, how does the “Efficacy (%)” value read?
**A.** -25%

**Q.** With Cc1coc2c1C(=O)C(=O)c1c-2ccc2c(C)cccc12 [NCGC00247624-03] as the molecule, how does the “Efficacy (%)” value read?
**A.** -40%

same assay, conditions: qHTS FP screen hits, Table S2; one class per curve where COUNT > 1; negative sign = inhibitory curve

**Q.** For FC(F)(F)c1cccc(N2CCN(C(=S)Nc3nccc4cccnc34)CC2)c1.O=C(O)C(F)(F)F [NCGC00244201-01], which “Curve Class” value is on record?
**A.** -1.2

**Q.** With Cc1coc2c1C(=O)C(=O)c1c-2ccc2c(C)cccc12 [NCGC00247624-03] as the molecule, how does the “Curve Class” value read?
**A.** -2.2

same assay, conditions: qHTS FP screen hits, Table S2; read-out: IC50

**Q.** For FC(F)(F)c1cccc(N2CCN(C(=S)Nc3nccc4cccnc34)CC2)c1.O=C(O)C(F)(F)F [NCGC00244201-01], which IC50 is on record?
**A.** 28.2 µM

**Q.** How did the IC50 turn out when Cc1cc(NS(=O)(=O)c2ccc(NC(=O)Cc3ccc(F)c(Cl)c3)cc2)no1.O=C(O)C(F)(F)F [NCGC00244873-01] was run?
**A.** 10 µM

**Q.** For Cc1coc2c1C(=O)C(=O)c1c-2ccc2c(C)cccc12 [NCGC00247624-03], which IC50 is on record?
**A.** 39.8 µM

same assay, conditions: qHTS primary screen hits, Table S2; negative = inhibition

**Q.** For O=C(O)C(F)(F)F.O=C1Nc2ccccc2/C1=N/NC(=S)Nc1cccnc1 [NCGC00242647-01], which “Efficacy (%)” value is on record?
**A.** -32%

**Q.** How did the “Efficacy (%)” value turn out when Cc1cc(C)nc(NC(=S)N2CCN(c3ccc4nsnc4c3)CC2)c1.O=C(O)C(F)(F)F [NCGC00244160-01] was run?
**A.** -85%

**Q.** With COc1ccc(CC(=O)Nc2ccc(S(=O)(=O)Nc3cc(C)on3)cc2)cc1C.O=C(O)C(F)(F)F [NCGC00244861-01] as the molecule, how does the “Efficacy (%)” value read?
**A.** -19%

same assay, conditions: qHTS primary screen hits, Table S2; negative sign = inhibitory curve; several classes where COUNT > 1

**Q.** For O=C(O)C(F)(F)F.O=C1Nc2ccccc2/C1=N/NC(=S)Nc1cccnc1 [NCGC00242647-01], which “Curve Class” value is on record?
**A.** -1.4

**Q.** With Cc1cc(C)nc(NC(=S)N2CCN(c3ccc4nsnc4c3)CC2)c1.O=C(O)C(F)(F)F [NCGC00244160-01] as the molecule, how does the “Curve Class” value read?
**A.** -2.1

**Q.** For COc1ccc(CC(=O)Nc2ccc(S(=O)(=O)Nc3cc(C)on3)cc2)cc1C.O=C(O)C(F)(F)F [NCGC00244861-01], which “Curve Class” value is on record?
**A.** -1.4

same assay, conditions: qHTS primary screen hits, Table S2; read-out: IC50

**Q.** For O=C(O)C(F)(F)F.O=C1Nc2ccccc2/C1=N/NC(=S)Nc1cccnc1 [NCGC00242647-01], which IC50 is on record?
**A.** 17.8 µM

**Q.** How did the IC50 turn out when Cc1cc(C)nc(NC(=S)N2CCN(c3ccc4nsnc4c3)CC2)c1.O=C(O)C(F)(F)F [NCGC00244160-01] was run?
**A.** 50.1 µM

**Q.** Which IC50 does the source give for COc1ccc(CC(=O)Nc2ccc(S(=O)(=O)Nc3cc(C)on3)cc2)cc1C.O=C(O)C(F)(F)F [NCGC00244861-01] here?
**A.** 11.2 µM

molecular target: T2, GST-CIB1 : F-scrambled peptide (Homo sapiens, UniProt Q99828); experiment: FP scrambled-peptide counter screen, 1536-well format; format: binding; settings: counterscreen
T2 construct: made in house; host or cells: BL-21 plus RIL cells (E. coli)
T2 sequence (Q99828 1-191): T1 sequence (Q99828 1-191)

**Q.** O=C(O)C(F)(F)F.O=C1Nc2ccccc2/C1=N/NC(=S)Nc1cccnc1 [NCGC00242647-01] was tested. Which “COUNTERSCREEN Efficacy (%)” value did it give?
**A.** -17%

**Q.** Cc1cc(C)nc(NC(=S)N2CCN(c3ccc4nsnc4c3)CC2)c1.O=C(O)C(F)(F)F [NCGC00244160-01] was tested. Which “Efficacy (%) (counterscreen)” value did it give?
**A.** -93%

**Q.** Which “Efficacy (%) (counterscreen)” value does the source give for FC(F)(F)c1cccc(N2CCN(C(=S)Nc3nccc4cccnc34)CC2)c1.O=C(O)C(F)(F)F [NCGC00244201-01] here?
**A.** -43%

**Q.** With COc1ccc(CC(=O)Nc2ccc(S(=O)(=O)Nc3cc(C)on3)cc2)cc1C.O=C(O)C(F)(F)F [NCGC00244861-01] as the molecule, how does the “Efficacy (%) (counterscreen)” value read?
**A.** -14%

**Q.** How did the “COUNTERSCREEN Efficacy (%)” value turn out when Cc1cc(NS(=O)(=O)c2ccc(NC(=O)Cc3ccc(F)c(Cl)c3)cc2)no1.O=C(O)C(F)(F)F [NCGC00244873-01] was run?
**A.** -17%

**Q.** Cc1coc2c1C(=O)C(=O)c1c-2ccc2c(C)cccc12 [NCGC00247624-03] was tested. Which “Efficacy (%) (counterscreen)” value did it give?
**A.** -73%

same assay, conditions: counterscreen, YES/NO

**Q.** How did the “Confirm? (counterscreen)” value turn out when COc1ccc(CC(=O)Nc2ccc(S(=O)(=O)Nc3cc(C)on3)cc2)cc1C.O=C(O)C(F)(F)F [NCGC00244861-01] was run?
**A.** YES

same assay, conditions: counterscreen, qHTS curve class

**Q.** With O=C(O)C(F)(F)F.O=C1Nc2ccccc2/C1=N/NC(=S)Nc1cccnc1 [NCGC00242647-01] as the molecule, how does the “COUNTERSCREEN Curve Class” value read?
**A.** 4

**Q.** Which “COUNTERSCREEN Curve Class” value does the source give for Cc1cc(NS(=O)(=O)c2ccc(NC(=O)Cc3ccc(F)c(Cl)c3)cc2)no1.O=C(O)C(F)(F)F [NCGC00244873-01] here?
**A.** 4

same assay, conditions: counterscreen, qHTS curve class; negative sign = inhibitory curve

**Q.** Cc1cc(C)nc(NC(=S)N2CCN(c3ccc4nsnc4c3)CC2)c1.O=C(O)C(F)(F)F [NCGC00244160-01] was tested. Which “Curve Class (counterscreen)” value did it give?
**A.** -2.2

**Q.** Which “Curve Class (counterscreen)” value does the source give for FC(F)(F)c1cccc(N2CCN(C(=S)Nc3nccc4cccnc34)CC2)c1.O=C(O)C(F)(F)F [NCGC00244201-01] here?
**A.** -1.2

**Q.** How did the “Curve Class (counterscreen)” value turn out when COc1ccc(CC(=O)Nc2ccc(S(=O)(=O)Nc3cc(C)on3)cc2)cc1C.O=C(O)C(F)(F)F [NCGC00244861-01] was run?
**A.** 4

**Q.** Which “Curve Class (counterscreen)” value does the source give for Cc1coc2c1C(=O)C(=O)c1c-2ccc2c(C)cccc12 [NCGC00247624-03] here?
**A.** -2.2

same assay, conditions: counterscreen; read-out: IC50 [μM] (counterscreen)

**Q.** Which IC50 does the source give for Cc1cc(C)nc(NC(=S)N2CCN(c3ccc4nsnc4c3)CC2)c1.O=C(O)C(F)(F)F [NCGC00244160-01] here?
**A.** 39.8 µM

**Q.** FC(F)(F)c1cccc(N2CCN(C(=S)Nc3nccc4cccnc34)CC2)c1.O=C(O)C(F)(F)F [NCGC00244201-01] was tested. Which IC50 did it give?
**A.** 22.4 µM

**Q.** Cc1coc2c1C(=O)C(=O)c1c-2ccc2c(C)cccc12 [NCGC00247624-03] was tested. Which IC50 did it give?
**A.** 44.7 µM
